No end group written: not given here.
Key:
[1] = test system: children diagnosed with Autism; conditions: secretin given as diagnostic procedure during upper gastrointestinal endoscopy (Horvath et al. 1998); cited from earlier work
[2] = test system: children diagnosed as having autism; test: Experiment 1: Fecal Chymotrypsin Test after secretin infusion; assay type: in vivo, human (children); conditions: each of 16 autistic children; approximately one week after first secretin infusion, 1 U/kg IV
Method: (§1) In this experiment, 16 children diagnosed as having autism were administered the following Fecal Chymotrypsin Test in accordance with an embodiment of the invention. First, approximately 2 grams of stool were collected from each child and placed in a sterile container (although it is to be understood that any quantity of stool may be collected, as 2 grams of stool is not a required amount). Each stool sample was then analyzed using, e.g., an enzymatic photospectrometry analysis as is known by those skilled in the art, to determine the level of fecal chymotrypsin in the stool. Although the enzymatic photospectrophotometry process is preferred, any suitable conventional method may be used for measuring the fecal chymotrypsin levels. The measured chymotrypsin levels of the 16 autistic children are illustrated in FIG. 13.
After determining the chymotrypsin levels of the stools, each of these levels were compared with threshold chymotrypsin levels to determine if the child was likely to benefit from secretin administration. […]
The results of Experiment 1 are illustrated in FIGS. 1-14. For instance, approximately one week after the first secretin infusion, the fecal chymotrypsin level of each of the 16 autistic children was measured again. […]

[3] = test system: autistic children with abnormal fecal chymotrypsin levels; test: Experiment 2: fecal chymotrypsin levels during 6 months of secretin administration; assay type: in vivo, human (children); conditions: of 37 children, 6 months post-secretin administration
Method: as §1
After determining the chymotrypsin levels of the stools, each of these levels were compared with threshold chymotrypsin levels to determine if the child was likely to benefit from secretin administration. By way of example, with the fecal chymotrypsin tests of the stool samples being performed at 30° C. normal levels of chymotrypsin are deemed to lie above 8.4 U/gram, whereas pathologically abnormal levels are deemed to lie below 4.2 U/gram. In addition, chymotrypsin levels between 8.4 U/gram and 4.2 U/gram are considered equivocal, and further testing of the individual's fecal chymotrypsin levels over a period of time should be performed.
A preferred secretin infusion process includes the initial step of prepping an arm of the candidate child with an IV injection of saline. A test dose of 1 U of Secretin-Ferring is then administered to the child. […]
In this experiment, 37 autistic children with abnormal fecal chymotrypsin levels were administered secretin over the course of 6 months using the secretin infusion process described above. Their fecal chymotrypsin (FC) levels were measured weekly using the fecal chymotrypsin test described above.

[4] = test system: children diagnosed as having autism; test: Experiment 1: CARS (Childhood Autism Rating Scale) test pre/post secretin; assay type: in vivo, human (children); conditions: 16 autistic children
Method: Upon determining that a given child was likely to benefit from secretin administration based on the results of the fecal chymotrypsin test, the child was administered a CARS (Childhood Autism Rating Scale) test prior to being scheduled for secretin infusion.
For each of the 16 autistic children tested, a preferred secretin infusion process according to the present invention was performed involving the administering of 1 U/kg of body weight of Secretin-Ferring for a period of nine months at intervals of approximately 6 weeks. In addition, another CARS test was administered to each of the 16 autistic children 3 weeks post secretin administration to determine if their autism had changed post infusion.
A preferred secretin infusion process includes the initial step of prepping an arm of the candidate child with an IV injection of saline. A test dose of 1 U of Secretin-Ferring is then administered to the child. Approximately one minute after infusion, the child is examined for signs of allergic reaction including rash, increased heart rate, and increase of blood pressure. […] Subsequently, each child receives a 1U/kg of body weight infusion of Secretin-Ferring approximately every 6 weeks for 9 months. It is to be understood that any commercially available form of secretin may be used. […]

## secretin (HSDGTFTSELSRLRDSARLQRLLQGLV; ends and bridges not checked; UniProt P63298 33-59, looked up) [gastrointestinal peptide hormone]
[1]
  symptoms associated with Autism after secretin administration: ameliorating the symptoms
[2]
  fecal chymotrypsin level post-secretin administration compared with pre-secretin: increased
[3]; pre-secretin 0
  # Autistic Children w/Equivocal FC levels: 2
  # Autistic Children w/normal FC levels: 34
[3]; pre-secretin 37
  # Autistic Children w/Abnormal FC levels: 1
[4]; 3 weeks post infusion
  CARS component scores (all except fear): improvement
[4]; approximately 3 weeks after first secretin administration vs pre-secretin
  CARS scores, overall change: overall decrease

— patent US6632429B1, “Methods for treating pervasive development disorders” (priority 1999, dated 2003)
